Reference: US11690854B2, “Methods of treating heavy menstrual bleeding” (priority 2018, dated 2023)

Assays:
rats [1] = assay: Lactation study in rats (secretion in milk); assay type: in vivo
Method: Pregnant rats were given diet containing elagolix throughout the gestation and lactation periods to achieve a daily elagolix dose of 400 mg/kg. During nursing the dams and litters were divided into restricted feeding and non-restricted groups to determine whether elagolix was secreted in the mother's milk. […] In pups of the non-restricted feeding group, elagolix plasma concentrations were measurable and approximately 1% of the mother's plasma concentrations.

rats [2] = assay: 2-year carcinogenicity study in rats; assay type: in vivo; details: rat
Description: The rat tumors were identified as being species-specific and of negligible relevance to humans. This conclusion is based on a follow-on thyroid and hepatic effects-related investigative study performed to document the possibility that thyroid and liver tumors may be specific to rat and occurred via induction of hepatic drug metabolizing enzymes at the high dose.

[3] = test system: premenopausal women with HMB and UF; assay: Phase 2b trial, post hoc subgroup with uterine fibroids and non-dominant adenomyosis; assay type: in vivo, human; details: 6 months
Method: Patients and Methods: […] Elagolix studied in this clinical trial comprised the sodium salt of Compound A. All subjects were evaluated with ultrasound and a subset volunteered to also be evaluated by MRI. […] Efficacy and safety were evaluated post hoc in a subgroup of women who had confirmed non-dominant adenomyosis (ultrasound/MRI) at baseline. Menstrual blood loss (MBL) was quantified from sanitary products (alkaline hematin). […] Adverse events (AEs) were recorded.

[4] = Binding to human plasma proteins; assay type: in vitro ADME; details: read-out: % Bound to human plasma proteins (converted)
[5] = target: T1, organic anion transporting polypeptide (OATP)1B1 (Homo sapiens, UniProt Q9Y6L6); assay: Drug interaction potential: OATP1B1
T1 sequence (Q9Y6L6 1-691): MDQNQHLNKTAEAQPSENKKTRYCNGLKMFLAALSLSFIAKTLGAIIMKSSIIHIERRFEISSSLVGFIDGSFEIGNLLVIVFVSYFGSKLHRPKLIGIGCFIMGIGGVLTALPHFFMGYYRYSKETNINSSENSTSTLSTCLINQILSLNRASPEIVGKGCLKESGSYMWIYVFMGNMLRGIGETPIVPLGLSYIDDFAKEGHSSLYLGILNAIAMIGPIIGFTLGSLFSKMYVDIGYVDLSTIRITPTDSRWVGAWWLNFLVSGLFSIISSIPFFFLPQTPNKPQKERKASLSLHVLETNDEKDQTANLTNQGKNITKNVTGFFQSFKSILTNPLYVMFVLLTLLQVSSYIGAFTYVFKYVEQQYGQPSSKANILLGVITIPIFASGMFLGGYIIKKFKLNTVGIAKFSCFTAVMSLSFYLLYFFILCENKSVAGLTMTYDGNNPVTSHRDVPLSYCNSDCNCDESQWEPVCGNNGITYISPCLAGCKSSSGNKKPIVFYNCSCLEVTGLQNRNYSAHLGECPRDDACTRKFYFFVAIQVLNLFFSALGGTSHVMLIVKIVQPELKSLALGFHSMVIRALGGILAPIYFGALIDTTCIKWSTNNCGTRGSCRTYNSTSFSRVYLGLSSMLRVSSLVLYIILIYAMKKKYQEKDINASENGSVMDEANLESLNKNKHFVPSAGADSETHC
Method: Elagolix is a substrate of CYP3A, P-gp, and organic anion transporting polypeptide (OATP)1B1. Clinically meaningful interactions are not expected when ELAGOLIX is co-administered with drugs that inhibit CYP3A or P-gp.
Co-administration of ELAGOLIX with drugs that inhibit OATP1B1 may increase elagolix plasma concentrations. Use of potent OATP1B1 inhibitors are not recommended with ELAGOLIX 200 mg BID regimen.

QTc interval = assay: Thorough QT study; assay type: in vivo; details: up to 1200 mg; 17- to 23-fold of therapeutic concentrations; active control moxifloxacin 400 mg
Method: The effect of elagolix (up to 1200 mg) on QTc interval was evaluated in an active-controlled (moxifloxacin 400 mg) thorough QT study.

healthy women = assay: 3-menstrual cycle study in healthy women; assay type: in vivo, human
rats [6] = assay: Fertility study and repeat-dose study in rats; assay type: in vivo
Description: (§1) Based on pharmacologic actions of elagolix in humans a reversible effect on fertility may be expected in women.

monkeys = assay: Repeat-dose study in monkeys; assay type: in vivo; details: 75, 150, 300 and 600 mg/kg/day, all doses
Description: as §1

mice = assay: 2-year carcinogenicity study in mice; assay type: in vivo; details: mouse; any dose
[7] = test system: women with moderate to severe endometriosis-related pain; assay: PROMIS Fatigue SF-6a in Phase III study of endometriosis pain; assay type: in vivo, human
Method: A Phase III study was conducted to assess the effects of elagolix for clinically meaningful reductions in pain and other symptoms. Data provided examined the impact of elagolix on fatigue in women with moderate to severe endometriosis-related pain. […] Fatigue was assessed using the Patient Reported Outcome Measurement Information System (PROMIS®), Fatigue Short Form (SF) 6a. Six items assessed a range of self-reported symptoms from mild, subjective feelings of tiredness to overwhelming, sustained sense of exhaustion that likely decreases one's ability to execute daily activities and function normally. The domain was divided into the experience of fatigue (frequency, duration and intensity) and impact of fatigue on physical, mental and social activities. All items assessed fatigue over the previous seven days. […] Lower scores indicated less fatigue. Post-hoc, Fatigue SF-6a raw scores were converted to T-scores. The T-score rescales […] the raw score into a standardized score such that the general population has a mean of 50 and a standard deviation (SD) of 10. Analysis: […] ANCOVA controlled for treatment as main effect. Baseline Fatigue SF-6a T-score included as a covariate.

COc1cccc(-c2c(C)n(Cc3c(F)cccc3C(F)(F)F)c(=O)n(C[C@H](NCCCC(=O)O)c3ccccc3)c2=O)c1F [Elagolix, 4-((R)-2-[5-(2-fluoro-3-methoxy-phenyl)-3-(2-fluoro-6-trifluoromethyl-benzyl)-4-methyl-2,6-dioxo-3,6-dihydro-2H-pyrimidin-1-yl]-1-phenyl-ethylamino)-butyric acid]
Elagolix plasma concentrations in pups relative to the mother's plasma concentrations (rats [1]; non-restricted feeding group, dams 400 mg/kg daily in diet): approximately 1% | Secretion in milk (rats [1]; rats, pup plasma as surrogate of exposure via lactation): minimally secreted in milk | Elagolix plasma concentrations in pups (rats [1]; restricted feeding litters, post natal day 10 and 20, dams 400 mg/kg daily in diet): not measurable | Margin of safety at the high dose with respect to 200 mg BID in women (rats [2]; both, in vivo, 2 years): 13 fold | Tumors in 2-year carcinogenicity study (rats [2]; high dose, identified as species-specific): increase in thyroid (male and female) and liver (males only) tumors | Proportion of women with ≥50% reduction from baseline in HMB and <80 mL MBL in the last 28 days of treatment ([3]; Cohort 1 (300 mg BID, with or without E2/NETA), placebo 40% (n=10)): 80% | Proportion of women with ≥50% reduction from baseline in HMB and <80 mL MBL in the last 28 days of treatment ([3]; Cohort 2 (600 mg QD, with or without E2/NETA), placebo 13% (n=16)): 92% | fraction unbound [4]: 0.2 | Substrate of OATP1B1 [5]: substrate | Effect on QTc interval (QTc interval): does not prolong the QTc interval | Ovulation rate (healthy women; 150 mg QD): approximately 50% | Mean endometrial thickness (transvaginal ultrasound) (healthy women; 150 mg QD and 200 mg BID, compared to pretreatment values): dose dependent decrease in the mean endometrial thickness | Ovulation rate (healthy women; 200 mg BID): ~32% | Effect in fertility study (rats [6]; doses 50, 150, 300 mg/kg/day): no effect | Ovarian findings in repeat-dose study (rats [6]; doses 600, 800 mg/kg/day): involution and a decrease in corpora lutea in ovaries | Reproductive organ findings in repeat-dose study (monkeys): reversible atrophy of reproductive organs (cervix, uterus and vagina) | Tumors in 2-year carcinogenicity study (mice): no increase in tumors | PROMIS Fatigue SF-6a T-Score ([7]; 200 mg, Month 1): statistically significant reduction in fatigue | PROMIS Fatigue SF-6a T-Score ([7]; both doses (150 mg QD, 200 mg BID), Months 3 and 6): Statistically significant reductions relative to placebo
